Reference: patent US7838288B2, “Modulators of odorant receptors” (Duke University, priority 2004, dated 2010)
Entries after “also recorded” stand apart in the source; their conditions may differ.

Assays:
OREG = target: T1, OREG (Mus musculus, UniProt Q920P2); experiment: cAMP assay, OREG; format: cell-based; conditions: OREG transfected; Hana3A cells vs 293T cells expressing Gαolf
T1 construct: expressed in transfected cells; host or cells: Hana3A cells, or HEK293T cells co-transfected with Golf
T1 sequence (Q920P2 1-313): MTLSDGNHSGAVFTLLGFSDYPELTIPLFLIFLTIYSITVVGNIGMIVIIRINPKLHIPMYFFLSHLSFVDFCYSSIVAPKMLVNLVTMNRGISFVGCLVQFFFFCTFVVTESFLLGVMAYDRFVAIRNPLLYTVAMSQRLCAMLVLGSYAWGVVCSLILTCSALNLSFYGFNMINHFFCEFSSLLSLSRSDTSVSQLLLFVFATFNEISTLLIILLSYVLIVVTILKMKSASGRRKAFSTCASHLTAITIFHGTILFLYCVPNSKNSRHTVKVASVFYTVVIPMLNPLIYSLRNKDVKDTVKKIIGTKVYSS
Experimental: In order to confirm the increased OR function in the presence of REEP1, RTP1 and RTP2, the amount of cAMP upon ligand stimulation was measured using 293T cells expressing Gαolf and Hana3A cells. […] In contrast, when the β2 adrenergic receptor was expressed and isoproterenol was used, no significant differences in cAMP production were observed (see FIG. 8E). The present invention is not limited to a particular mechanism. Indeed, an understanding of the mechanism is not necessary to practice the present invention. Nonetheless, this further supports a specific role of the accessory proteins in functional OR expression.
(§1) Dual-Glo system (Promega) for luciferase assay was used. CRE-Luciferase (Stratagene) was used to measure the receptor activities. Renilla luciferase driven by constitutively active SV40 promoter (pRL-SV40: Promega) was used as an internal control. Cells were plated on poly-D-lysine coated 96 well plates (BIOCOAT, Beckton Dickinson). […] Luminescence was measured using Wallac Victor 1420 (Perkin-Elmer). Normalized luciferase activity was calculated as [Luc (N)-Luc (0)]/RL (N), where Luc (N)=Luminescent count of a certain well, Luc (0)=Luminescent count without odorant for each OR, and RL (N)=Luminescent count of Renilla Luciferase of each well. […]

[1] = target: T2, mouse odorant receptor OREG (Mus musculus, UniProt Q920P2); experiment: CRE-luciferase reporter gene assay, OREG; format: cell-based
T2 construct: expressed in transfected cells; host or cells: 293T cells (with or without co-transfected REEP1/RTP1/RTP2) and Hana3A cells (293T stably expressing mouse REEP1, RTP1, RTP2, Galpha-olf)
T2 sequence (Q920P2 1-313): T1 sequence (Q920P2 1-313)
Text: Poor odorant evoked signaling activity in heterologous cell culture systems expressing ORs has been attributed to the poor cell surface expression of ORs. The identification of REEP and/or RTP allowed a direct assessment of this issue. A luciferase reporter gene assay was employed in which a cAMP responsive element (CRE) mediated luciferase gene expression (see FIG. 8A). Because OR activation leads to an increase in cAMP, activation of the mouse odorant receptor OREG by its ligand eugenol was measured in the presence and absence of REEP and/or RTP (see, e.g., Kajiya, K., et al. (2001) J Neurosci 21, 6018-6025; Touhara, K., et al., (1999) Proc Natl Acad Sci USA 96, 4040-4045; each herein incorporated by reference in their entireties). As reported previously, eugenol increased levels of OREG dependent luciferase activity (see, e.g., Katada, S., et al. (2003) Biochem Biophys Res Commun 305, 964-969; herein incorporated by reference in its entirety).
(§2) To facilitate analysis of odorant-OR interactions, 293T cell lines were established which stably express REEP1, RTP1, RTP2 and Gαolf, the G protein alpha subunit that couples to OR (see, e.g., Belluscio, L., et al. (1998) Neuron 20, 69-81; Jones, D. T., and Reed, R. R. (1989). Science 244, 790-795; each herein incorporated by reference in their entireties). To establish such cells, linearized expression vectors containing mouse REEP1, RTP1, RTP2 and Gαolf ORFs were transfected into 293T cells with PGK-Pac (puromycin resistant gene) (see, e.g., Watanabe, S., et al. (1995) Biochem Biophys Res Commun 213, 130-137; herein incorporated by reference in its entirety). […] Enhanced cell-surface expression was observed when OREG or other ORs were transfected in Hana3A cells and immunostained (see FIG. 10). […] Expression of Gαolf alone in 293T cells had little or no effect on OR activation using this assay.
Dual-Glo system (Promega) for luciferase assay was used. CRE-Luciferase (Stratagene) was used to measure the receptor activities. Renilla luciferase driven by constitutively active SV40 promoter (pRL-SV40: Promega) was used as an internal control. Cells were plated on poly-D-lysine coated 96 well plates (BIOCOAT, Beckton Dickinson). After 8 hours (for experiments shown in FIGS. 8B and 8C) or 12 hours (for experiments shown in FIG. 8D and FIG. 11) after transfection, the medium was replaced with CD293 chemically defined medium (Invitrogen) and the plates were incubated for one hour at 37 degrees C. The medium was replaced with 50 ul of odorant solutions dissolved in CD293 and incubated for 10 hours (for experiments shown in FIGS. 8B and 8C) or 4 hours (for experiments shown in FIG. 8D and FIG. 11) at 37 degrees C. The manufacture's protocol for measuring luciferase and Renilla luciferase activities was followed. Luminescence was measured using Wallac Victor 1420 (Perkin-Elmer). Normalized luciferase activity was calculated as [Luc (N)-Luc (0)]/RL (N), where Luc (N)=Luminescent count of a certain well, Luc (0)=Luminescent count without odorant for each OR, and RL (N)=Luminescent count of Renilla Luciferase of each well. For cAMP assays, cells were plated onto 24-well plate. […]. Prism software (Graphpad) was used for data analysis.

OR-S6/S79 = experiment: CRE-luciferase reporter gene assay, OR-S6/S79; format: cell-based, mouse; conditions: Hana3A cells
Experimental: Four ORs (S6/79, S18, S46 and S50) previously assayed using other techniques (see, e.g., Malnic, B., et al. (1999) Cell 96, 713-723; herein incorporated by reference in its entirety) were tested against an assay panel of aliphatic alcohols, aldehydes and acids and some other odorants. Additionally, five “orphan” class I ORs (MOR23-1, MOR31-4, MOR31-6, MOR32-5 and MOR32-11) whose cognate ligands were unknown were tested. At a suprathreshold concentration of 100 uM, all these ORs were odorant selective, responding to only a small subset of the odorants tested (see FIG. 11A). This specificity was retained at lower, more physiologically relevant concentrations. Many of these ORs responded to odorants present in micromolar concentrations. The cell-surface expression of these ORs by living-cell immunofluorescence were evaluated. Some ORs (S18, MOR31-4, MOR31-6 and MOR32-5) were strongly expressed while other ORs (S6, S50, MOR23-1, MOR32-11) were weakly expressed (see FIG. 12). The present invention is not limited to a particular mechanism. Indeed, an understanding of the mechanism is not necessary to practice the present invention. […] Finally, two additional orphan class II ORs, MOR203-1 and olfr62, were tested against a panel of 139 odorants. […] Olfr62 responded to coumarine and piperonal (see FIG. 11C). […] When parental 293T cells for these ORs were used in this luciferase assay, little or no response to the odorants was observed. The present invention is not limited to a particular mechanism. Indeed, an understanding of the mechanism is not necessary to practice the present invention.
An expression system has been established that permits rapid identification of ligands for ORs. This system was tested with twelve ORs. Four of the tested ORs (S6/S79, S18, S46, and S50) were expressed in single olfactory neurons responding to aliphatic odorants (see, e.g., Malnic, B., et al. (1999) Cell 96, 713-723; herein incorporated by reference in its entirety). The response profiles of OR-S50, but not that of OR-S18 agreed with the previous report (see, e.g., Malnic, B., et al. (1999) Cell 96, 713-723; herein incorporated by reference in its entirety). […] In experiments conducted during the course of the present invention, OR-S6/S79 responded to nonanedioic acid but not to heptanoic acid or octanoic acid. The present invention is not limited to a particular mechanism. […] When multiple single olfactory neurons that expressed the same OR were recorded against the same set of odorants using calcium imaging, their response profiles were similar but different (see, e.g., Bozza, T., et al. (2002) J Neurosci 22, 3033-3043; herein incorporated by reference in its entirety).
(§3) Dual-Glo system (Promega) for luciferase assay was used. […] Luminescence was measured using Wallac Victor 1420 (Perkin-Elmer). […]

[2] = test system: olfactory neurons S6 and S79; conditions: previous studies (Malnic 1999); cited from earlier work
OR-S50 = experiment: CRE-luciferase reporter gene assay, OR-S50; format: cell-based, mouse
Text: as §2
as §1, with “activities.” for “activities. Renilla luciferase driven by constitutively active SV40 promoter (pRL-SV40: Promega) was used as an internal control. Cells were plated on poly-D-lysine coated 96 well plates (BIOCOAT, Beckton Dickinson).”

MOR203-1 = experiment: CRE-luciferase reporter gene assay, MOR203-1; format: cell-based, mouse; conditions: Hana3A cells
Experimental: (§4) Four ORs (S6/79, S18, S46 and S50) previously assayed using other techniques (see, e.g., Malnic, B., et al. (1999) Cell 96, 713-723; herein incorporated by reference in its entirety) were tested against an assay panel of aliphatic alcohols, aldehydes and acids and some other odorants. Additionally, five “orphan” class I ORs (MOR23-1, MOR31-4, MOR31-6, MOR32-5 and MOR32-11) whose cognate ligands were unknown were tested. At a suprathreshold concentration of 100 uM, all these ORs were odorant selective, responding to only a small subset of the odorants tested (see FIG. 11A). This specificity was retained at lower, more physiologically relevant concentrations. Many of these ORs responded to odorants present in micromolar concentrations. The cell-surface expression of these ORs by living-cell immunofluorescence were evaluated. Some ORs (S18, MOR31-4, MOR31-6 and MOR32-5) were strongly expressed while other ORs (S6, S50, MOR23-1, MOR32-11) were weakly expressed (see FIG. 12). […]
(§5) Dual-Glo system (Promega) for luciferase assay was used. […] Luminescence was measured using Wallac Victor 1420 (Perkin-Elmer). Normalized luciferase activity was calculated as [Luc (N)-Luc (0)]/RL (N), where Luc (N)=Luminescent count of a certain well, Luc (0)=Luminescent count without odorant for each OR, and RL (N)=Luminescent count of Renilla Luciferase of each well. […]

OR-S46 = experiment: CRE-luciferase reporter gene assay, OR-S46; format: cell-based, mouse; conditions: Hana3A cells
Text: To facilitate analysis of odorant-OR interactions, 293T cell lines were established which stably express REEP1, RTP1, RTP2 and Gαolf, the G protein alpha subunit that couples to OR (see, e.g., Belluscio, L., et al. (1998) Neuron 20, 69-81; Jones, D. T., and Reed, R. R. (1989). Science 244, 790-795; each herein incorporated by reference in their entireties). To establish such cells, linearized expression vectors containing mouse REEP1, RTP1, RTP2 and Gαolf ORFs were transfected into 293T cells with PGK-Pac (puromycin resistant gene) (see, e.g., Watanabe, S., et al. (1995) Biochem Biophys Res Commun 213, 130-137; herein incorporated by reference in its entirety). […] Enhanced cell-surface expression was observed when OREG or other ORs were transfected in Hana3A cells and immunostained (see FIG. 10). […]
Four ORs (S6/79, S18, S46 and S50) previously assayed using other techniques (see, e.g., Malnic, B., et al. (1999) Cell 96, 713-723; herein incorporated by reference in its entirety) were tested against an assay panel of aliphatic alcohols, aldehydes and acids and some other odorants. […] The cell-surface expression of these ORs by living-cell immunofluorescence were evaluated. […]
as §3

MOR31-4 = experiment: CRE-luciferase reporter gene assay, MOR31-4; format: cell-based, mouse; conditions: Hana3A cells
Experimental: as §4, §5

MOR23-1 = experiment: CRE-luciferase reporter gene assay, MOR23-1; format: cell-based, mouse; conditions: Hana3A cells
Experimental: as §4, §5

C=CCc1ccc(O)c(OC)c1 [eugenol, reference compound]
cAMP production (OREG): Enhanced cAMP production; also recorded: more cAMP was produced
luciferase induction ([1]; HA-OREG in 293T cells): Little luciferase induction was observed
luciferase activity ([1]; HA-OREG in Hana3A cells): an enhancement in luciferase activity was observed
OREG dependent luciferase activity ([1]; odorant applied, OREG in 293T cells with or without REEP and/or RTP): increased

CCCCCCCC(=O)O [octanoic acid]
response of OR-S6/S79 to odorant (luciferase) (OR-S6/S79): not
response of single olfactory neurons S6 and S79 to odorant [2]: only the olfactory neuron S79 responded

O=C(O)CCCCCCCC(=O)O [nonanedioic acid]
response of OR-S6/S79 to odorant (luciferase) (OR-S6/S79): responded
luciferase response (OR-S50; OR-S50 in 293T cells): did not produce a luciferase response
luciferase activity (OR-S50; OR-S50 in Hana3A cells): robust luciferase activity
response of single olfactory neurons S6 and S79 to odorant [2]: both responded

CCCCCCC(=O)O [heptanoic acid, Heptanoic acid]
response of OR-S6/S79 to odorant (luciferase) (OR-S6/S79): not
response of single olfactory neurons S6 and S79 to odorant [2]: only the olfactory neuron S79 responded

CCCCCCCCC(=O)O [nonanoic acid, Nonanoic acid]
response of MOR203-1 to odorant (luciferase) (MOR203-1): responded to high concentrations
response of S46 to odorant (luciferase) (OR-S46): responded
response of MOR31-4 to odorant (luciferase) (MOR31-4): responded
response of MOR23-1 to odorant (luciferase) (MOR23-1): responded
